Patent publication US5521163A, “Antiviral pyrimidine nucleosides and methods for using same” (University of Birmingham, priority 1994, dated 1996)

Key:
VZV = assay: Plaque reduction assay, VZV clinical isolates in MRC-5 cells; assay type: cell-based, varicella zoster virus; conditions: read-out: IC50 VZV, Table 1, β-anomers
Procedure: Clinical isolates of varicella zoster virus (VZV) were assayed in monolayers of MRC-5 cells. MRC-5 cells are derived from human embyonic lung tissue. A plaque reduction assay was used in which a suspension of the virus stock was used to infect monolayers of the cells in multiwell trays. a range of concentrations of the compound under test of known molarity was added to the wells. Plaque numbers at each concnetration were expressed as percentages of the control and a dose response curve was constructed. From these curves the 50% inhibitory concentration of each drug was determined.

HSV2 = assay: Plaque reduction assay, HSV-2 (strain 186) in cell monolayers; assay type: cell-based, Herpes Simplex Virus type 2; conditions: Human alphaherpesvirus 2, Table 1; β-anomers; HSV-2 strain 186, plaque reduction
Procedure: (§1) Herpes Simplex Virus types 1 (HSV 1) and 2 (HSV2) were assayed in monolayers of Veto cells in multiwell trays. The virus strains used were SC16 and 186 for HSV-1 and HSV-2 respectively. Activity of compounds was determined in the plaque reduction assay, in which a cell monolayer was infected with a suspension of the appropirate HSV, and then overlaid with nutrient agarose in the form of a gel to ensure that there was no spread of virus throughout the culture. A range of concentrations of compound of known molarity was incorporated in the nutrient agarose overlay. Plaque numbers at each concentration were expressed as percentages of the control and a dose-response curve was drawn. From this curve the 50% inhibitory concentration (IC50) was estimated to be 0.66 μm for the compound of formula (I) in which X represents a 2-bromovinyl group.

Herpes Simplex Virus = assay: Plaque reduction assay, HSV (type not given); assay type: cell-based, Herpes Simplex Virus types 1 (HSV 1) and 2 (HSV2); conditions: read-out: 50% inhibitory concentration (IC50)
Procedure: as §1

HSV1 = assay: Plaque reduction assay, HSV-1 (strain SC16) in cell monolayers; assay type: cell-based, Herpes Simplex Virus type 1; conditions: Human alphaherpesvirus 1, SC16, Table 1; β-anomers; HSV-1 strain SC16, plaque reduction
Procedure: as §1

## CCc1cn([C@H]2C[C@H](O)[C@@H](CO)S2)c(=O)[nH]c1=O [X=CH2 CH3, Y=OH, 2'-Deoxy-5-ethyl-4'-thiouridine]
VZV
  IC50: 990 nM

## Nc1nc(=O)n([C@H]2C[C@H](O)[C@@H](CO)S2)cc1/C=C/Br [X=CH=CHBr, Y=NH2, 2'-Deoxy-5-E-(2-bromovinyl)-4'-thiocytidine]
HSV2
  IC50: > 10000 nM

## O=c1[nH]c(=O)n([C@H]2C[C@H](O)[C@@H](CO)S2)cc1/C=C/Br [X=CH=CHBr, Y=OH, E-5-(2-bromovinyl)-2'-deoxy-4'-thiouridine]
Herpes Simplex Virus
  IC50: 660 nM
HSV1
  IC50: 600 nM
HSV2
  IC50: 10000 to 100000 nM
